{"source": "patent US20120046318A1", "about": "“METHODS AND COMPOSITIONS FOR TREATING INTERNAL AND EXTERNAL HEMORRHOIDS” (priority 2010, published 2012)", "key": {"[1]": {"test": "Plasma pharmacokinetics in healthy volunteers after a single intra-rectal dose of iferanserin ointment", "assay_type": "in vivo, human", "conditions": "simulation, 10 mg b.i.d. multiple dose regime, subject S-03"}, "5-HT2A receptors": {"target": "5-HT2A receptors (Homo sapiens, UniProt P28223)", "sequence (P28223 whole entry)": "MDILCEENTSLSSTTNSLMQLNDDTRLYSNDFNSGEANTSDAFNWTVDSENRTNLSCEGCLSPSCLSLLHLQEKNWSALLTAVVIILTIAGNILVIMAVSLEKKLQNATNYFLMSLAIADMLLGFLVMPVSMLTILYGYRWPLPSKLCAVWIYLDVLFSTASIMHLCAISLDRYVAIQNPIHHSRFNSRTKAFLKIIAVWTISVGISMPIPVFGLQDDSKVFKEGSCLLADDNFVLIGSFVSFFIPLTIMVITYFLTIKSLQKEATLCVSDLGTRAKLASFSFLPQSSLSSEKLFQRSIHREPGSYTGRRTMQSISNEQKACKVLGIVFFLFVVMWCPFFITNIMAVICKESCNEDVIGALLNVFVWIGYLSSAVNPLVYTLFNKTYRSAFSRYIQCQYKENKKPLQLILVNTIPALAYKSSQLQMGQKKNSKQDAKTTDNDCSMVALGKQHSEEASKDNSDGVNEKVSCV", "test": "Receptor blockade and selectivity in all systems studied", "description": "(§1) Iferanserin is a powerful and selective 5-HT2A receptor antagonist. […] Iferanserin is particularly selective to human colonic venous 5-HT2A receptors, although there is data supporting activity at both 5-HT2B and 5-HT2C. […] Since 5-HT is released by the blood platelets in static and pooled blood, selective peripheral 5-HT2A receptor antagonists would be expected to have built-in tissue selectivity, i.e., will act only where there is vaso-constriction and platelet aggregation mediated by 5-HT. Therefore, the effects of iferanserin should be limited only to those areas where there is stasis and pooled blood caused by serotonin."}, "[2]": {"tested_on": "patients with internal hemorrhoids (stages 1-3)", "test": "Example 6: double-blind placebo-controlled study of 0.5% cream, intra-rectal b.i.d. for two weeks", "assay_type": "in vivo, human", "method": "A double-blind placebo-controlled study was conducted to assess the effects of topical iferanserin (S-MPEC) cream (0.5%), applied intra-rectally twice a day for two weeks, on bleeding and other symptoms of patients with internal hemorrhoids (stages 1-3). The primary endpoint of this trial was the change from pre-treatment in patient assessment of hemorrhoid bleeding (10-point scale where 1=no bleeding, 10=extreme bleeding) at the end of one- and two-weeks of treatment. The 0.5% dose was selected based on previous performance, such as shown in Examples 3, 4 and 5 wherein 0.5% concentration consistently performed better then 0.25% and 1% in both patient reported symptoms and in physician rated symptoms at day 7 in a patient population similar to the planned study population. Further, the 0.5% dose was the only dose to approach statistical significance in the primary endpoint (reduction in hemorrhoid size at week 4; p=0.076) (See FIG. 5) with favorable results in bleeding, itching and pain endpoints.\nSubjects self-administered placebo or 0.5% iferanserin cream twice-a-day for 14 days and completed a diary evaluating their symptoms (bleeding, ease of bowel movement, pain, prolapse, fullness, throbbing, tenderness and itching) every day during the treatment period. Investigator examinations occurred on days 0 and 14 which included evaluation of hemorrhoidal size, bleeding frequency and intensity, soiling, pruritis, pain, prolapse and incontinence to gas.\nOne hundred and twenty-one (121) patients were treated, 61 with iferanserin and 60 with placebo. Inclusion criteria required that the main symptom was bleeding episodes of at least every other day during the last two weeks before enrollment in the study. Daily patient dairies for bleeding, itching and pain/discomfort were recorded for 14 day with assessments taken at day 7 and 14 based on a 10 point scale, wherein 1 was used for less symptoms and 10 was for extreme conditions.\nIn those patients who did have a recurrence of symptoms during this time period there was a significant delay (p<0.05) in the appearance of the symptoms after termination of iferanserin treatment as compared to placebo; iferanserin delayed the reappearance of symptoms by an average of 18 days, compared to 12 days with placebo, a 50% difference, as shown in FIG. 6. Thus, not only did iferanserin decrease the major symptoms of hemorrhoids during treatment but it also delayed the time for these symptoms to reappear after termination of treatment. This prolonged symptom-free period, following treatment with iferanserin, provides for less frequent hemorrhoidal episodes, or at least less frequent episodes of hemorrhoidal symptoms in patients who experience chronic hemorrhoids, thereby translating into less frequent treatment.\nHemorrhoidal symptoms can also recur while treatment is continuing. In this study, bleeding, itching and pain were analyzed for recurrence during the 14-day dosing period. […] […] For iferanserin, 89% of patients reported cessation of bleeding for at least one day, and of these only 32% reported a recurrence of bleeding."}, "human platelets": {"tested_on": "human platelets", "test": "Blockade of platelet aggregation effects of 5-HT", "assay_type": "cell-based", "description": "as §1"}, "[3]": {"tested_on": "patients with hemorrhoids", "test": "Example 3: randomized double-blind dose study, intra-rectal b.i.d. for 2 weeks", "assay_type": "in vivo, human", "method": "A randomized, double-blind dose study of iferanserin (S-MPEC) was conducted using 0.25%, 0.5%, 1.0% concentrations, wherein the respective dose was applied intra-rectally twice a day (b.i.d) for 2 weeks in patients with hemorrhoids. The primary endpoint of this trial was the improvement in hemorrhoidal symptoms and objective findings including swelling and hemorrhoidal size. Secondary endpoints were subjective symptoms of bleeding, pain, anal discomfort, difficulty in defecation and prolapse rated on a visual analog scale."}, "[4]": {"tested_on": "symptomatic internal and mixed internal/external hemorrhoids", "test": "Example 4: dose study of cream b.i.d. for 14 days", "assay_type": "in vivo, human", "conditions": "for hemorrhoidal swelling reduced: 14th day", "description": "The S isomer of MPEC in doses of 0.25%, 0.5% and 1.0% cream was used for symptomatic internal and mixed internal/external hemorrhoids and administered twice a day for 14 days. Seventy two patients were enrolled; 68 evaluable for analysis: 0.25% (23 pts), 0.5% (24 pts), 1.0% (21 pts). A graded assessment method used the following methods: if a value after treatment was smaller (−) it meant “improved,” if a value after treatment was equal (=), it meant “no change” and a value that was greater (+) after treatment it meant “deteriorated.” There was significant change in ease of defecation (week one) between dose groups; but no other symptom dose difference was detected."}, "[5]": {"tested_on": "patients with hemorrhoids", "test": "Example 5: randomized double-blinded placebo controlled dose study, intra-rectal b.i.d. for 4 weeks", "assay_type": "in vivo, human", "method": "A randomized, double-blinded, placebo controlled dose study of S-MPEC was conducted using 0.25%, 0.5% and 1% concentrations, wherein a 5, 10 or 20 mg dose in the form of two (2) grams was administered in a single dose. The dosage was applied intra-rectally twice a day (b.i.d) for 4 weeks in patients with hemorrhoids.\nThe primary endpoint of this trial was the reduction in hemorrhoidal area (size) at 4 weeks compared to baseline. Secondary endpoints were subjective symptoms of bleeding, pain, anal discomfort, difficulty in defecation and prolapse rated on a visual analog scale."}, "[6]": {"conditions": "cessation = three consecutive days"}, "[7]": {"conditions": "cessation = three consecutive days, 31 patients questioned"}, "[8]": {"conditions": "cessation = three consecutive days, 56 patients questioned"}}, "note": "Structures can show the parent of a compound that is named as a salt."}
{"smiles": "CN1CCCC[C@H]1CCc1ccccc1NC(=O)/C=C/c1ccccc1", "note": "[iferanserin, S-2′-[2-(1-methyl-2-piperidyl)ethyl]cinnamanilide hydrochloride]", "values": [{"measurement": "projected Cmax,ss", "setting": "[1]", "result": 90, "unit": "ng/m"}, {"measurement": "time to steady state", "setting": "[1]", "result": "4 to 5", "unit": "days"}, {"measurement": "blockade of 5-HT2A receptors and selectivity over 5-HT-1, dopamine, adrenergic receptors", "setting": "5-HT2A receptors", "result": "selectively blocked 5-HT2A receptors with little effect on 5-HT-1, dopamine or adrenergic receptors"}, {"measurement": "bleeding, patient diary 10-point scale", "setting": "[2]; 0.5% cream b.i.d. 14 days", "result": "reduction in bleeding from Day 1 that continued to the end of treatment"}, {"measurement": "ease of defecation", "setting": "[2]; 0.5% cream b.i.d. 14 days", "result": "statistically significantly better than baseline from day three to the end of the study"}, {"measurement": "itching", "setting": "[2]; 0.5% cream b.i.d. 14 days", "result": "statistically significant improvement versus placebo from the fourth day of treatment"}, {"measurement": "pain", "setting": "[2]; 0.5% cream b.i.d. 14 days", "result": "reduced the level of pain to the almost no symptom level from the third day of treatment"}, {"measurement": "serious adverse events", "setting": "[2]; 0.5% cream b.i.d. 14 days", "result": "no serious adverse events reported"}, {"measurement": "tenderness", "setting": "[2]; 0.5% cream b.i.d. 14 days", "result": "statistically significant from the second day of treatment"}, {"measurement": "difference in delay of reappearance of symptoms compared to placebo", "setting": "[2]; 18 days versus 12 days", "result": 50, "unit": "%"}, {"measurement": "patients who stopped itching", "setting": "[2]; cessation = at least one day", "result": 90, "unit": "%"}, {"measurement": "recurrence of itching among patients with cessation", "setting": "[2]; cessation = at least one day", "result": 25, "unit": "%"}, {"measurement": "recurrence of pain among patients with cessation", "setting": "[2]; cessation = at least one day", "result": 33, "unit": "%"}, {"measurement": "patients reporting cessation of bleeding", "setting": "[2]; cessation = at least one day without the symptom", "result": 89, "unit": "%"}, {"measurement": "recurrence of bleeding among patients with cessation", "setting": "[2]; cessation = at least one day, while on treatment", "result": 32, "unit": "%"}, {"measurement": "recurrence of bleeding among patients with cessation", "setting": "[2]; [6]", "result": 23, "unit": "%"}, {"measurement": "recurrence of itching among patients with cessation", "setting": "[2]; [6]", "result": 16, "unit": "%"}, {"measurement": "number of patients with no itching", "setting": "[2]; [7]", "result": 25, "unit": "patients"}, {"measurement": "patients with no itching", "setting": "[2]; [7]", "result": 80, "unit": "%"}, {"measurement": "number of patients reporting stopping of bleeding", "setting": "[2]; [8]", "result": 46, "unit": "patients"}, {"measurement": "patients reporting stopping of bleeding", "setting": "[2]; [8]", "result": 82, "unit": "%"}, {"measurement": "recurrence of pain among patients with cessation", "setting": "[2]; cessation defined as four consecutive days (sentence says three)", "result": 9, "unit": "%"}, {"measurement": "patients reporting consecutive days of no pain", "setting": "[2]; cessation defined as four consecutive days (sentence says three), 24 patients questioned", "result": 61, "unit": "%"}, {"measurement": "patients with at least one day free of pain", "setting": "[2]; patients reporting with pain", "result": 72, "unit": "%"}, {"measurement": "average delay of reappearance of symptoms after termination of treatment", "setting": "[2]; patients with recurrence within 45 days, p<0.05 versus placebo", "result": 18, "unit": "days"}, {"measurement": "patients without recurrence of any of the symptoms", "setting": "[2]; up to 45 days post-treatment", "result": 61, "unit": "%"}, {"measurement": "blockade of platelet aggregation effects of 5-HT", "setting": "human platelets", "result": "blocked the platelet aggregation effects of 5-HT on human platelets"}, {"measurement": "improvement in bleeding, pain severity and duration, ease of defecation, swelling and size", "setting": "[3]; 0.5% dose group versus 0.25 and 1% dose groups", "result": "most consistent improvement"}, {"measurement": "bleeding, pain severity and duration and ease of defecation", "setting": "[3]; after one day of application, 0.25%, 0.5%, 1.0% b.i.d.", "result": "Significant reductions"}, {"measurement": "symptoms of hemorrhoids", "setting": "[3]; following two weeks of application", "result": "virtually all the symptoms of hemorrhoids disappeared"}, {"measurement": "adverse events (abdominal discomfort, diarrhea)", "setting": "[3]; intra-rectal b.i.d. for 2 weeks", "result": "all of them were mild"}, {"measurement": "pain, anal discomfort and pain persistence, visual analog scale (VAS)", "setting": "[4]; 0.25%, 0.5%, 1.0% cream", "result": "improved with increasing dose"}, {"measurement": "hemorrhoidal swelling reduced", "setting": "[4]; 0.5% cream", "result": 41, "unit": "%"}, {"measurement": "bleeding, paired comparison of dose levels", "setting": "[4]; 0.5% group, difference between dose levels p=0.016", "result": "better than the 0.25% or 1.0% groups"}, {"measurement": "hemorrhoidal swelling reduced", "setting": "[4]; 1.0% cream", "result": 43, "unit": "%"}, {"measurement": "all symptoms, patient diary review", "setting": "[4]; 14 days b.i.d.", "result": "improved starting on day 1, peaked by day 7 and were maintained to day 14"}, {"measurement": "tolerance", "setting": "[5]; 0.25%, 0.5%, 1% b.i.d. for 4 weeks", "result": "considered good"}, {"measurement": "reduction in hemorrhoidal size", "setting": "[5]; 0.5% dose, 4 weeks, relative to placebo and other concentrations", "result": "most effective"}]}
